Experimental data from ChEMBL document CHEMBL4665705 (J Med Chem, 2020).
Converted amounts (≈) assume the structure as drawn.

Key:
[1] = buffer, pH 7.4
in vitro = settings: PAMPA, pH 7.4
[2] = biological target: Bromodomain-containing protein 4 (Homo sapiens, UniProt O60885, Y97A)
physchem = settings: phosphate buffered saline, pH 7.4
[3] = biological target: Bromodomain-containing protein 4 (Homo sapiens, UniProt O60885, Y390A)
[4] = Drug metabolism in human liver S9 fraction assessed as deacetylation to aniline at 10 uM incubated for 120 mins by FTMS analysis; type: ADME, subcellular; settings: s9, 2 h
[5] = Drug metabolism in rat liver S9 fraction assessed as deacetylation to aniline at 10 uM incubated for 120 mins by FTMS analysis; type: ADME, subcellular; settings: s9, 2 h
[6] = Genotoxicity in Salmonella typhimurium TA100 in absence of S9 fraction by Ames test; type: toxicity; settings: salmonella enterica subsp. enterica serovar typhimurium
[7] = Genotoxicity in Escherichia coli WP2uvrA in presence of S9 fraction by Ames test; type: toxicity, subcellular
[8] = Genotoxicity in Salmonella typhimurium TA100 in presence of S9 fraction by Ames test; type: toxicity, subcellular; settings: salmonella enterica subsp. enterica serovar typhimurium
[9] = Genotoxicity in Salmonella typhimurium TA98 in presence of S9 fraction by Ames test; type: toxicity, subcellular; settings: salmonella enterica subsp. enterica serovar typhimurium
[10] = Genotoxicity in Salmonella typhimurium TA1537 in absence of S9 fraction by Ames test; type: toxicity; settings: salmonella enterica subsp. enterica serovar typhimurium
[11] = Genotoxicity in Salmonella typhimurium TA1535 in presence of S9 fraction by Ames test; type: toxicity, subcellular; settings: salmonella enterica subsp. enterica serovar typhimurium
[12] = Genotoxicity in Salmonella typhimurium TA98 in absence of S9 fraction by Ames test; type: toxicity; settings: salmonella enterica subsp. enterica serovar typhimurium
[13] = Genotoxicity in Salmonella typhimurium TA1537 in presence of S9 fraction by Ames test; type: toxicity, subcellular; settings: salmonella enterica subsp. enterica serovar typhimurium
[14] = Genotoxicity in Escherichia coli WP2uvrA in absence of S9 fraction by Ames test; type: toxicity
[15] = Genotoxicity in Salmonella typhimurium TA1535 in absence of S9 fraction by Ames test; type: toxicity; settings: salmonella enterica subsp. enterica serovar typhimurium

| Compound | CHI [1] | Papp (in vitro) [×10⁻⁶ cm/s] | IC50 [2] [µM] | solubility kinetic (physchem) [µg/mL] | IC50 [3] [µM] | further results |
| --- | --- | --- | --- | --- | --- | --- |
| CC(=O)Nc1ccc(C(=O)NCCCN)cc1OCc1ccccn1 | 0.3 | < 0.3 | 10 | 80 (≈ 234 µM) | > 50.1 | – |
| CCNC(=O)c1ccc(NC(C)=O)c(OCc2ccccc2)c1F | 2.5 | 46 | 20 | 119 (≈ 360 µM) | > 50.1 | – |
| CC(=O)Nc1ccc(C(=O)NC2CCOCC2)cc1O[C@H](C)c1ccccc1 | 3.8 | 30 | 12.6 | 159 (≈ 416 µM) | > 50.1 | – |
| CC(=O)Nc1ccc(C(=O)NCCCN)cc1OCc1ccc(C(C)C)cc1 | 3.1 | 0.77 | – | 114 (≈ 297 µM) | – | – |
| CC(=O)Nc1ccc(C(=O)NCCc2cnc[nH]2)cc1OCc1ccccc1 | 2.2 | 0.8 | – | 125 (≈ 330 µM) | – | – |
| CC(=O)Nc1ccc(C(=O)NCCCN)cc1OCC1CCOCC1 | 0.4 | < 0.3 | > 50.1 | 144 (≈ 412 µM) | > 50.1 | – |
| CC(=O)Nc1ccc(C(=O)NCCCN)cc1OCc1cccc(Cl)c1 | 2.1 | 1.1 | – | 96 (≈ 255 µM) | – | – |
| CC(=O)Nc1ccccc1OCc1ccccc1 | 4.9 | 78 | – | 113 (≈ 468 µM) | – | – |
| C[C@H](Oc1cc(C(=O)N[C@H]2CC[C@H](O)CC2)ccc1N)c1ccccc1 | – | – | – | – | – | Activity [6]: Non-Toxic; Activity [7]: Non-Toxic; Activity [8]: Non-Toxic; Activity [9]: Non-Toxic; Activity [10]: Non-Toxic; Activity [11]: Non-Toxic; Activity [12]: Non-Toxic; Activity [13]: Non-Toxic; Activity [14]: Non-Toxic; Activity [15]: Non-Toxic |
| CC(=O)Nc1ccc(C(=O)NCCCN)cc1OCc1ccncc1 | 0.1 | 0.3 | – | 112 (≈ 327 µM) | – | – |
| CC(=O)Nc1ccc(C(=O)NCCCN)cc1OCc1cccnc1 | 0.2 | < 0.3 | 15.8 | 130 (≈ 380 µM) | > 50.1 | – |
| Nc1c(O)cc(C(=O)O)cc1F | – | – | – | – | – | Activity [6]: Non-Toxic; Activity [7]: Toxic; Activity [8]: Non-Toxic; Activity [9]: Non-Toxic; Activity [10]: Non-Toxic; Activity [11]: Non-Toxic; Activity [12]: Non-Toxic; Activity [13]: Non-Toxic; Activity [14]: Toxic; Activity [15]: Non-Toxic |
| CC(=O)Nc1ccc(C(=O)NCCCN)cc1OCc1ccc(C(N)=O)cc1 | 0 | < 0.3 | 10 | 151 (≈ 393 µM) | > 50.1 | – |

Continued, in another order:

| CHI [1] | Papp (in vitro) [×10⁻⁶ cm/s] | IC50 [2] [µM] | solubility kinetic (physchem) [µg/mL] | IC50 [3] [µM] | Compound | further results |
| --- | --- | --- | --- | --- | --- | --- |
| 3.3 | 19 | 2 | 155 (≈ 421 µM) | > 50.1 | CC(=O)Nc1ccc(C(=O)NC2CCOCC2)cc1OCc1ccccc1 | – |
| 3.5 | 19 | 2.51 | 174 (≈ 455 µM) | > 50.1 | CC(=O)Nc1ccc(C(=O)NCC2CCOCC2)cc1OCc1ccccc1 | – |
| 1.7 | 17 | 0.794 | < 3 | > 50.1 | CC(=O)Nc1ccc(C(=O)NCC2CCNCC2)cc1OCc1ccccc1 | – |
| 3.7 | 34 | 0.251 | 215 (≈ 562 µM) | 31.6 | CC(=O)Nc1ccc(C(=O)NC2CCOCC2)cc1O[C@@H](C)c1ccccc1 | Drug metabolism [4]: Metabolite_Detected; Drug metabolism [5]: Metabolite_Detected |
| 3.5 | 32 | 6.31 | 143 (≈ 458 µM) | > 50.1 | CCNC(=O)c1ccc(NC(C)=O)c(OCc2ccccc2)c1 | – |
| 1.7 | < 0.3 | 0.501 | 159 (≈ 447 µM) | 20 | CC(=O)Nc1ccc(C(=O)NCCCN)cc1OC(C)c1ccccc1 (racemic) | – |
| 3.1 | 9.3 | 0.158 | 170 (≈ 429 µM) | 39.8 | CC(=O)Nc1ccc(C(=O)N[C@H]2CC[C@H](O)CC2)cc1O[C@@H](C)c1ccccc1 | – |
| 3.1 | 11 | 1 | 18 (≈ 54.5 µM) | > 50.1 | CCNC(=O)c1cc(F)c(NC(C)=O)c(OCc2ccccc2)c1 | – |
| 2 | 0.65 | 2 | 114 (≈ 321 µM) | 31.6 | CC(=O)Nc1ccc(C(=O)NCCCN)cc1OCc1ccc(C)cc1 | – |
| 2.7 | 7.9 | 1.26 | 174 (≈ 455 µM) | > 50.1 | CC(=O)Nc1ccc(C(=O)N[C@H]2CC[C@H](O)CC2)cc1OCc1ccccc1 | – |
| 4 | 10.4 | 1.58 | 200 (≈ 504 µM) | > 50.1 | CC(=O)Nc1ccc(C(=O)NCCC2CCOCC2)cc1OCc1ccccc1 | – |
| 1.9 | 1.5 | 2.51 | 124 (≈ 330 µM) | 39.8 | CC(=O)Nc1ccc(C(=O)NCCCN)cc1OCc1ccccc1Cl | – |
| 2.2 | < 0.3 | 2 | 108 (≈ 287 µM) | 25.1 | CC(=O)Nc1ccc(C(=O)NCCCN)cc1OCc1ccc(Cl)cc1 | – |
| 1.3 | < 0.3 | 2.51 | 114 (≈ 307 µM) | 39.8 | COc1ccc(COc2cc(C(=O)NCCCN)ccc2NC(C)=O)cc1 | – |
| 2.4 | 9.4 | 3.98 | 109 (≈ 318 µM) | > 50.1 | CC(=O)Nc1ccc(C(=O)NCCCO)cc1OCc1ccccc1 | – |
| 2.3 | 6.8 | 5.01 | 162 (≈ 493 µM) | > 50.1 | CC(=O)Nc1ccc(C(=O)NCCO)cc1OCc1ccccc1 | – |
| 4.4 | 67 | 1.58 | 159 (≈ 481 µM) | > 50.1 | CCNC(=O)c1cc(OCc2ccccc2)c(NC(C)=O)cc1F | – |
| 1.6 | < 0.3 | 1.58 | 123 (≈ 360 µM) | 31.6 | CC(=O)Nc1ccc(C(=O)NCCCN)cc1OCc1ccccc1 | – |
